The values that follow come from ChEMBL document CHEMBL3779772, “Synthesis of tetracyclic iminosugars fused benzo[e][1,3]thiazin-4-one and their HIV-RT inhibitory activity” (Bioorg Med Chem Lett, 2016).

The target of the assay is Human immunodeficiency virus type 1 reverse transcriptase (Human immunodeficiency virus 1, UniProt Q72547). In words: Inhibition of HIV1 reverse transcriptase using DIG-labeled dNTPs as substrate after 1 hr by ELISA.
One may read the IC50 as the concentration that gives 50% inhibition. As for `O=C1CN2C(=O)c3ccccc3S[C@H]2[C@H]2[C@H](O)[C@H](O)CN12`, 8.21 µM corresponded to half-maximal inhibition (IC50). The result for `C[C@H]1C(=O)N2C[C@@H](O)[C@@H](O)[C@@H]2[C@@H]2Sc3ccccc3C(=O)N12` reads 9.65 µM; that for `C[C@@H]1C(=O)N2C[C@@H](O)[C@@H](O)[C@@H]2[C@@H]2Sc3ccccc3C(=O)N12`, 2.01 µM. The compound `O=C1CN2C(=O)c3ccccc3S[C@@H]2[C@H]2[C@H](O)[C@H](O)CN12` came in with an IC50 of 0.82 µM. On to `C[C@H]1C(=O)N2C[C@@H](O)[C@@H](O)[C@@H]2[C@H]2Sc3ccccc3C(=O)N21`, for which the IC50 amounted to 4.21 µM.
